Columns and labels:
Androgen receptor [1] = molecular target: T1, Androgen receptor (Homo sapiens, UniProt P10275)
T1 sequence (P10275 whole entry): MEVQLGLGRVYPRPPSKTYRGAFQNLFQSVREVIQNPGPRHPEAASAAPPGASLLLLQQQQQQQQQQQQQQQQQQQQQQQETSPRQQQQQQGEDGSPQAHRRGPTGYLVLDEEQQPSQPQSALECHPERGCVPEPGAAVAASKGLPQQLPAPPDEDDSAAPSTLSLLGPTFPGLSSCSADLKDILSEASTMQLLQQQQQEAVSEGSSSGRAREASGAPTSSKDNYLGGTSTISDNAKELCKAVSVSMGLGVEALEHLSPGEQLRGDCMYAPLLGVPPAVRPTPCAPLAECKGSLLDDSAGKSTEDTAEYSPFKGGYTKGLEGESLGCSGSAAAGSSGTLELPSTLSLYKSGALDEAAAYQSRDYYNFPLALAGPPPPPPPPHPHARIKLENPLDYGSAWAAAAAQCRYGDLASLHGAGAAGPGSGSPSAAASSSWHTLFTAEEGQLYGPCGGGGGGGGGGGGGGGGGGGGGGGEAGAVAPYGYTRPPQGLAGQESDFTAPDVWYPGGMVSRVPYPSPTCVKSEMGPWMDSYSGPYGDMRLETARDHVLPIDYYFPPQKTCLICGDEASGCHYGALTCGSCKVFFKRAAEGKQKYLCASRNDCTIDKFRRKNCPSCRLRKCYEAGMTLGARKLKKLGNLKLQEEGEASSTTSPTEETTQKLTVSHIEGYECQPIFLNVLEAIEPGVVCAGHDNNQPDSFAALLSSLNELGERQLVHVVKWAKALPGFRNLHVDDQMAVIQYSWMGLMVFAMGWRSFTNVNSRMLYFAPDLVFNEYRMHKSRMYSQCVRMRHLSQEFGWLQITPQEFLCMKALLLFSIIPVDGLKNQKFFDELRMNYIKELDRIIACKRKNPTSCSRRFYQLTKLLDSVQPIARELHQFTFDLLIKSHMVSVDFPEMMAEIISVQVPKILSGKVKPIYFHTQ
Description: Binding affinity to human AR

Androgen receptor [2] = molecular target: T1, Androgen receptor; remark: listed apart in the source
Description: Antagonist activity at human androgen receptor by luciferase reporter gene assay

Androgen receptor [3] = molecular target: T1, Androgen receptor; remark: listed apart in the source
Description: Agonist activity at human androgen receptor by luciferase reporter gene assay

[4] = Bioavailability in Sprague-Dawley rat at 10 mg/kg, po; assay type: ADME, organism-based; conditions: in vivo
[5] = Half life in Sprague-Dawley rat at 2.5 mg/kg, iv; assay type: ADME, organism-based; set-up: dose 2.5 mg/kg, route intravenous; conditions: in vivo
[6] = AUC (0 to infinity) in Sprague-Dawley rat at 10 mg/kg, po; assay type: ADME, organism-based; set-up: time infinity, dose 10 mg/kg, route oral; conditions: plasma
Progesterone receptor = molecular target: T2, Progesterone receptor (Homo sapiens, UniProt P06401); test: Binding affinity to PR
T2 sequence (P06401 whole entry): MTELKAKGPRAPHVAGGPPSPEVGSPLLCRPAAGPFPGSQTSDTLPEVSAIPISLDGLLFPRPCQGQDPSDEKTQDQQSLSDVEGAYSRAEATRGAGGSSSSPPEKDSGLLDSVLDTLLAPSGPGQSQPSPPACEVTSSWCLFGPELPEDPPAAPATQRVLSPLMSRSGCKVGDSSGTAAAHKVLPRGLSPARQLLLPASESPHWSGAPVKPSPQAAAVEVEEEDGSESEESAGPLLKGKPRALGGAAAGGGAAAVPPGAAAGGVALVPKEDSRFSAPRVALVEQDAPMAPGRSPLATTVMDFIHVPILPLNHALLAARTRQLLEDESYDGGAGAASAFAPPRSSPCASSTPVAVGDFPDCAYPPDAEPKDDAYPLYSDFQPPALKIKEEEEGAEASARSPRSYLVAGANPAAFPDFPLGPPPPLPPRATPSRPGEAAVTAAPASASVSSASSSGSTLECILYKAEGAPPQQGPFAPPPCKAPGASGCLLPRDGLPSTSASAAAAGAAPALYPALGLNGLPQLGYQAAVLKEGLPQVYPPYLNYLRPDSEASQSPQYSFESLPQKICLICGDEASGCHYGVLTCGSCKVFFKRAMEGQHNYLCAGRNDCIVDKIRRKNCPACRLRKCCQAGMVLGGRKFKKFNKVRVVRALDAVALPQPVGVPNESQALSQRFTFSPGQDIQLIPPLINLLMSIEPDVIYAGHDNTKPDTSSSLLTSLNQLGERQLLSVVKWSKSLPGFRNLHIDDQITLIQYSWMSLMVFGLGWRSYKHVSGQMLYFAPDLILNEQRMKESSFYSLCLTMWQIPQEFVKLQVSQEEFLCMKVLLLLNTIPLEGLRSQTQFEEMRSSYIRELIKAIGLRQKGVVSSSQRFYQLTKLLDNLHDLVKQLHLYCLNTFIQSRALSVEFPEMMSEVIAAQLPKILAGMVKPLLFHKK

[7] = Anabolic effect as increased levator ani muscle weight in orchidectomized rat model at doses > 1 mg/kg; assay type: functional, organism-based; set-up: dose 1 mg/kg
[8] = molecular target: T3, Mineralocorticoid receptor (Homo sapiens, UniProt P08235); test: Binding affinity to MR
T3 sequence (P08235 whole entry): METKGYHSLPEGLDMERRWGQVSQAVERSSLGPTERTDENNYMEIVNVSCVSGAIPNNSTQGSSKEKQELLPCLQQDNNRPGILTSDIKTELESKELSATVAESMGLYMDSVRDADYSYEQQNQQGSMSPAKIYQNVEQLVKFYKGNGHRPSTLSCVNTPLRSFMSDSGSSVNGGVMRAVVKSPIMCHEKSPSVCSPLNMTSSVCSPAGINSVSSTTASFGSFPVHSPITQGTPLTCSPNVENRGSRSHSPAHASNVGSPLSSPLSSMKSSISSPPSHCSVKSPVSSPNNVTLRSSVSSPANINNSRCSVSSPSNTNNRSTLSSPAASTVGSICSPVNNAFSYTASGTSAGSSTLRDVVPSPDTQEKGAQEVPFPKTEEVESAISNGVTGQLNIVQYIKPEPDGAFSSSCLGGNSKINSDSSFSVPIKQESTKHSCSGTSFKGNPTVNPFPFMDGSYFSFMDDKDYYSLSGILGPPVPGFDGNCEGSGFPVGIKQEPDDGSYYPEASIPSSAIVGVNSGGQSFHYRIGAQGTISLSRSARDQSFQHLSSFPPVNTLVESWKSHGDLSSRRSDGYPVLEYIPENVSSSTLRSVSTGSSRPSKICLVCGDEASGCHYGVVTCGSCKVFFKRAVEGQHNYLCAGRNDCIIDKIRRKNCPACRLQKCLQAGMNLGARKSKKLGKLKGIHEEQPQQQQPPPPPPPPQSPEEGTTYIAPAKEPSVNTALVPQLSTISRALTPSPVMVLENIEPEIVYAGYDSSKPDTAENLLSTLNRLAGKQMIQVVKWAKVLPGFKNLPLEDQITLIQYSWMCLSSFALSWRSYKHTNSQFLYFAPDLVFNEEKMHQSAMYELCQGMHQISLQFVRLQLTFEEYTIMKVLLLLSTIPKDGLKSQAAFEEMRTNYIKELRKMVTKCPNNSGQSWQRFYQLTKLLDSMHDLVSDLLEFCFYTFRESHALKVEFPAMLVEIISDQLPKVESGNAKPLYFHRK

Estrogen receptor = molecular target: T4, Estrogen receptor (Homo sapiens, UniProt P03372); test: Binding affinity to ERalpha
T4 sequence (P03372 whole entry): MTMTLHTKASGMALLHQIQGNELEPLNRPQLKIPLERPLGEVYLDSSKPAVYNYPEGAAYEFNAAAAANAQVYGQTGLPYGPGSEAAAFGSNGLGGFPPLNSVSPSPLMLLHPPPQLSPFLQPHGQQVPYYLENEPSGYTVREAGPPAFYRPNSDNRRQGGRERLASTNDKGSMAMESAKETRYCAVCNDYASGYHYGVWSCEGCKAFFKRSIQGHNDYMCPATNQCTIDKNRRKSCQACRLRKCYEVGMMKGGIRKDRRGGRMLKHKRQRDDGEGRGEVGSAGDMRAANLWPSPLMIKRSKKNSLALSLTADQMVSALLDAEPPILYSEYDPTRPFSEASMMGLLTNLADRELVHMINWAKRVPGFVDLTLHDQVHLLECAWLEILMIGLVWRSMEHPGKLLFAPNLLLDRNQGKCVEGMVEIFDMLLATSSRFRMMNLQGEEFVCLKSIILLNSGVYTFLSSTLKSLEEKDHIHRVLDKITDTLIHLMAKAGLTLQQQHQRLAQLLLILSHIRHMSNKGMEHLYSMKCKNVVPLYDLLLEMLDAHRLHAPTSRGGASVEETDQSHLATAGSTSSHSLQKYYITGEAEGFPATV

[9] = AUC (0 to infinity) in Sprague-Dawley rat at 14.6 mg/kg, po; assay type: ADME, organism-based; set-up: time infinity, dose 14.6 mg/kg, route oral; conditions: plasma
Glucocorticoid receptor = molecular target: T5, Glucocorticoid receptor (Homo sapiens, UniProt P04150); test: Binding affinity to GR
T5 sequence (P04150 whole entry): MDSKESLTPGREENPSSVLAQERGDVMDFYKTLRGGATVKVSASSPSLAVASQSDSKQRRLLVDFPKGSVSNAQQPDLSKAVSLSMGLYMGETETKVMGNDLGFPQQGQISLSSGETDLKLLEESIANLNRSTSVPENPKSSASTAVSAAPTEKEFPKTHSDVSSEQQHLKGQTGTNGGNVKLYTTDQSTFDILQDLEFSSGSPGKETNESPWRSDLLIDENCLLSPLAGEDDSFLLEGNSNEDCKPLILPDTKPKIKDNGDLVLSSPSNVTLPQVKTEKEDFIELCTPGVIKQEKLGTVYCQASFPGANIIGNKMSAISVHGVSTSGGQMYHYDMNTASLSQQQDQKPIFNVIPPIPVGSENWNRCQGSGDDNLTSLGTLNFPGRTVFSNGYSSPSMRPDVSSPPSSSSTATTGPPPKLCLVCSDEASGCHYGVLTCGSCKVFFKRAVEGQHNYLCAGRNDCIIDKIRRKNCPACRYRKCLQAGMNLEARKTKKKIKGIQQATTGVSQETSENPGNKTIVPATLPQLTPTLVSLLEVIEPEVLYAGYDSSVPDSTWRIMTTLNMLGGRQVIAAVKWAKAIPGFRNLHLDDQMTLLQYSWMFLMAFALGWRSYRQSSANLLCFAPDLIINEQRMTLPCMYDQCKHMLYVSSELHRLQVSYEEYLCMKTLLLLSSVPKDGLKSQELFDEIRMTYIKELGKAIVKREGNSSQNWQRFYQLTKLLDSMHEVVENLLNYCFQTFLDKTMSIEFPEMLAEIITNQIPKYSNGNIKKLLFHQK

[10] = Bioavailability in Sprague-Dawley rat at 14.6 mg/kg, po; assay type: ADME, organism-based; conditions: in vivo

| SMILES | Ki (Androgen receptor [1]) | IC50 (Androgen receptor [2]) | EC50 (Androgen receptor [3]) | also measured |
| --- | --- | --- | --- | --- |
| C[C@@H]1CC[C@H](C)N1c1ccc2[nH]c(=O)cc(C(F)(F)F)c2c1 | 19 nM | > 10000 nM | 2.6 nM |  |
| O=c1cc(C(F)(F)F)c2cc(N3CCCC3)ccc2[nH]1 | 1700 nM | 25 nM | > 10000 nM |  |
| C[C@@H]1CC[C@H]([C@H](O)C(F)(F)F)N1c1ccc2[nH]c(=O)cc(C(F)(F)F)c2c1 | 7.6 nM | > 10000 nM | 8.4 nM |  |
| C[C@@H]1CC[C@H](CO)N1c1ccc2[nH]c(=O)cc(C(F)(F)F)c2c1 | 70 nM | > 10000 nM | 21 nM |  |
| O=c1cc(C(F)(F)F)c2cc(N(CC(F)(F)F)CC(F)(F)F)ccc2[nH]1 |  |  |  | bioavailability [4]: 43%; half-life [5]: 1.7 h; AUC(0-inf) [6]: 3150 ng·h/mL |
| C[C@@H]1CC[C@H]([C@@H](O)C(F)(F)F)N1c1ccc2[nH]c(=O)cc(C(F)(F)F)c2c1 [LGD-2941] | 1.5 nM | > 10000 nM | 7.1 nM | Ki (Progesterone receptor): 2500 nM; half-life [5]: 2.7 h; Anabolic activity [7]: Anabolic; Ki [8]: > 10000 nM; Ki (Estrogen receptor): > 10000 nM; AUC(0-inf) [9]: 11800 ng·h/mL; Ki (Glucocorticoid receptor): 8300 nM; bioavailability [10]: 100% |
| C[C@@H]1CC[C@@H](C)N1c1ccc2[nH]c(=O)cc(C(F)(F)F)c2c1 (racemic) | 43 nM | > 10000 nM | 48 nM |  |
| CC1CCCN1c1ccc2[nH]c(=O)cc(C(F)(F)F)c2c1 (racemic) | 72 nM | > 10000 nM |  |  |
| C[C@@H]1CC[C@H](CCl)N1c1ccc2[nH]c(=O)cc(C(F)(F)F)c2c1 | 10 nM | > 10000 nM | 12 nM |  |

From ChEMBL document CHEMBL1148826, “Substituted 6-(1-pyrrolidine)quinolin-2(1H)-ones as novel selective androgen receptor modulators” (J Med Chem, 2007)
